Data on 136 compounds can be found in the OPERA property sets (Mansouri et al. 2018).

SMILES strings stand for the structures.

Settings in one data set: not given
On to `CCCCCC=O`, for which the logP (in general, the decadic logarithm of the partition coefficient of the neutral form, usually between octanol and water) came out at 1.78.
The same measure, in the same setting: the value for `O=C(O)COc1ccc(C2CCCCC2)cc1` was 3.79.
The same measure, in the same setting: as for `COC(=O)C=Cc1ccccc1`, the figure is 2.62; as for `COc1cccc(C=O)c1O`, 1.37.
Still for that read-out and setting: the value for `Cc1ccc2c(c1)C(=O)C=CC2=O` was 2.1; that for `BrC1CCCCC1` was 3.2.
`CNP(=O)(OC)Oc1ccc(OC)cc1` (stereo unspecified) registered a log partition coefficient (logP) of 1.06.
With `NS(=O)(=O)c1ccccc1`, the logP was 0.31.
In the case of `CC(C)c1cc(Oc2ccccc2)cc(C(C)C)c1NC(=S)NC(C)(C)C`, the log partition coefficient (logP) was 6.
Still for that read-out and setting: the value for `CCN=C=S` was 1.47; that for `CN(C)C(=O)Oc1ccccc1` was 1.56.
`CCCCCCCBr`: the log partition coefficient (logP) was determined as 4.36.
The same measure, in the same setting: the value for `COc1cnc(NS(=O)(=O)c2ccc(N)cc2)nc1` was 0.41; that for `C[C@]12CC[C@H]3[C@@H](CCC4=CC(=O)CC[C@@]43C)[C@@H]1CC[C@@H]2C(=O)CO` was 2.88; that for `O=C(NN=Cc1ccoc1)Nc1ccccc1` was 2.52.
Still for that read-out and setting: as for `CCCCCCCCCCCCCC[n+]1ccccc1.[Br-]`, the figure is 1.32; as for `O=C(OCCOCCO)c1ccccc1`, 1.16.
Still for that read-out and setting: the value for `S=C=Nc1ccc(-c2ccccc2)cc1` was 4.66; that for `O=C1C2(Cl)C3(Cl)C4(Cl)C(Cl)(Cl)C5(Cl)C3(Cl)C1(Cl)C5(Cl)C24Cl` (stereo unspecified) was 5.41; that for `c1c[nH]nn1` was -0.29.
`CC(C)c1nnc(S)n(N)c1=O` came in with a logP of 1.22.
Still for that read-out and setting: the value for `CCC(=O)O` was 0.33; that for `Cc1[nH]ncc1[N+](=O)[O-]` was 1.02.
The same measure, in the same setting: the value for `O=C(NCc1ccc(O)cc1)c1ccccc1` was 1.87.
For `O=C(O)Cc1ccccc1`, the logP is 1.41.
On the same count and under the same terms, as for `O=C(Nc1ccc([N+](=O)[O-])cc1)c1cccnc1`, the figure is 1.82; as for `CCN(CC)CCNC(=O)c1ccc(N)cc1`, 0.88; as for `O=C(O)c1cc(Cl)cc(Cl)c1`, 3.
The same measure, in the same setting: the value for `O=I(=O)c1ccccc1` was -1.33.
The same measure, in the same setting: the value for `O=C1NC(=O)C(c2ccccc2)(c2ccccc2)N1` was 2.47; that for `CCOC(=O)CON=Cc1ccc(OCCOC(=O)CC)c(OC)c1` was 2.39; that for `CCC1(c2ccccc2)C(=O)NC(=O)N(C)C1=O` (stereo unspecified) was 1.84.
With `COC(=O)CCCCC(=O)OC`, the log partition coefficient (logP) worked out at 1.03.
Same read-out and setting: as for `CCC1COC(Cn2cncn2)(c2ccc(Cl)cc2Cl)O1` (stereo unspecified), the figure is 3.1; as for `CC(=O)c1cccc([N+](=O)[O-])c1`, 1.42.
Still for that read-out and setting: the value for `CCCCc1ccc(S(N)(=O)=O)cc1` was 2.45; that for `Nc1ccc2cc3ccc(N)cc3nc2c1` was 1.83.
The same measure, in the same setting: as for `CCC1(CC)C(=O)NC(=O)N(C(C)C)C1=O`, the figure is 2.36.
For `O=C(O)c1ccc([N+](=O)[O-])cc1`, the logP came to 1.89.
The same measure, in the same setting: the value for `COC(=O)C12OCC34C(CC5C(C)=C(O)C(=O)CC5(C)C3C(O)C1O)OC(=O)C(OC(=O)C=C(C)C(C)C)C24` (stereo unspecified) was 1.66.
Still for that read-out and setting: the value for `OCCCCCl` was 0.85.
Same read-out and setting: the value for `CC1=NS(=O)(=O)c2ccccc2N1` was 0.29.
In turn, `COc1ccccc1C(C)=O` gave a lipophilicity (logP) of 1.82.
Turning to `Nc1ccc(C(=O)Oc2ccccc2F)c(O)c1`, the logP was found to be 3.29.
The same measure, in the same setting: as for `CC(C)CCC(=O)c1ccoc1`, the figure is 2.76.
On the same count and under the same terms, the value for `COP(=S)(OC)Oc1ccc([N+](=O)[O-])c(C(C)C)c1` was 4.05; that for `Cc1cc(CC(=O)O)ccc1OCc1ccccc1` was 3.37.
The same measure, in the same setting: as for `CC(=O)Oc1ccc(C(N)=O)cc1`, the figure is 0.27.
Compound `CCC(C)C(=O)Nc1ccccc1` (stereo unspecified) showed a logP of 2.56.
In turn, `Cc1ccccc1S(I)=C(N(C)C)N(C)C` (stereo unspecified) had a logP of -0.1.
Same read-out and setting: the value for `NC(C(=O)O)c1cccs1` (stereo unspecified) was -2.05; that for `COC(=O)CCC(=O)OCC(=O)C1(O)CCC2C3CCC4=CC(=O)CCC4(C)C3C(O)CC21C` (stereo unspecified) was 2.6; that for `O=C(O)Cc1cccc(O)c1` was 0.85.
The same measure, in the same setting: as for `O=C(NP(=O)(N1CC1)N1CC1)c1ccccc1I`, the figure is 1.05.
On the same count and under the same terms, as for `CN(C)C#N`, the figure is -0.15; as for `c1ccc2c(c1)oc1ccccc12`, 4.12; as for `O=NN(CCCl)C(=O)NC1CCCC1`, 2.2.
`CN(C)C(N(C)C)=S(I)c1ccccc1` (stereo unspecified) came in with a logP of -0.68.
Still for that read-out and setting: as for `CCc1ccc2c(c1)C(=O)c1ccc(NC(C)=O)cc1S2(=O)=O`, the figure is 3.44; as for `COc1ccccc1C(=O)O`, 1.59.
On the same count and under the same terms, as for `O=C(Nc1ccc(Br)cc1)C(F)(F)F`, the figure is 3.34; as for `COc1ccc(CCN)cc1OC`, 0.77; as for `CCOP(=S)(OCC)N1C(=O)c2ccccc2C1=O`, 3.48.
Same read-out and setting: as for `O=C(O)c1cc(O)cc(O)c1`, the figure is 0.86; as for `COC(C)(C)CCCC(C)C/C=C/C(C)=C/C(=O)OC(C)C` (stereo unspecified), 5.5.
The compound `Nc1ccnc2ccccc12` gave a lipophilicity (logP) of 1.63.
The same measure, in the same setting: as for `c1ccc2c(c1)cnc1ccccc12`, the figure is 3.48; as for `O=[N+]([O-])c1ccc(O)c(O)c1`, 1.66; as for `Nc1ncccn1`, -0.22.
On the same count and under the same terms, as for `O=[N+]([O-])c1ccncc1`, the figure is 0.33; as for `CC(C)(C)NCCO`, 0.41.
Same read-out and setting: the value for `CCCCCCCCCC(=O)OC` was 4.41.
In turn, `O=C(Nc1ccccc1)Nc1ccccc1` registered a logP of 3.
Still for that read-out and setting: as for `CCCC(C)C1(CC)C(=O)N=C(S)NC1=O` (stereo unspecified), the figure is 2.85; as for `CCCNC(=O)NO`, -0.22; as for `Clc1cc(Cl)c2c(Cl)ccc(Cl)c2c1`, 5.76.
Still for that read-out and setting: the value for `NC(=O)Cc1cccs1` was 0.33.
On the same count and under the same terms, as for `Nc1ccc(C(=O)Oc2cccc(Br)c2)c(O)c1`, the figure is 3.84; as for `O=[N+]([O-])c1cc(Cl)c(O)c(Cl)c1Cl`, 3.93.
Compound `CNC(=O)Nc1ccccc1` gave a logP of 1.12.
`Cc1ccc(NC=O)cc1` had a lipophilicity (logP) of 1.61.
The same measure, in the same setting: as for `CCCCCc1ccccc1`, the figure is 4.9; as for `O=C1OCc2ccccc21`, 0.8; as for `Nc1cc([N+](=O)[O-])cc([N+](=O)[O-])c1`, 1.89.
As to `c1ccc2[nH]ccc2c1`, the logP came to 2.14.
Still for that read-out and setting: the value for `O=C(O)Cc1ccccc1Nc1cccc(Cl)c1Cl` was 4.86; that for `CCOc1ccc([N+](=O)[O-])cc1` was 2.53.
Same read-out and setting: as for `COc1cc(CCN)cc(OC)c1OC(C)C`, the figure is 1.52; as for `N#CCNc1ccccc1C(N)=O`, 0.5; as for `CC(C)(C)C(=O)NN`, -0.35.
Still for that read-out and setting: as for `c1ccc(-n2cnnn2)cc1`, the figure is 1.09; as for `O=C1C=CCO1`, -0.6; as for `FC(F)Cl`, 1.08.
For the compound `CCC(C)NC(=O)C=C(Br)c1ccccc1` (stereo unspecified), the logP amounted to 3.56.
Same read-out and setting: the value for `NS(=O)(=O)NCCc1ccccc1` was 0.81.
In the case of `O=Cc1ccoc1`, the log partition coefficient (logP) amounted to 0.51.
Compound `C#CCN(CC#C)CC#C` showed a logP of 1.27.
Same read-out and setting: the value for `c1ccc(C2CNCCO2)cc1` (stereo unspecified) was 1.11; that for `CC(=O)OCC(COC(C)=O)OC(C)=O` was 0.25; that for `O=c1[nH]cnc2nc[nH]c12` was -1.11.
Same read-out and setting: the value for `CN1CCOCC1` was -0.33; that for `CN1C(=O)CN=C(c2ccccc2F)c2cc(Cl)ccc21` was 2.75; that for `O=[N+]([O-])c1nccn1CC(O)CN1CCCCC1` (stereo unspecified) was 1.
Take `CC1=C(O)OC2CC(C)C3C=CC(=O)C3(C)C(O)C12` (stereo unspecified): the logP is 1.13.
The same measure, in the same setting: as for `CCCCC(=O)OCC(=O)[C@@]1(OC(=O)CCCC)[C@@H](C)C[C@H]2[C@@H]3CCC4=CC(=O)C=C[C@]4(C)[C@@]3(F)[C@@H](O)C[C@@]21C`, the figure is 5.26; as for `CCC(=O)N(C)C`, -0.11; as for `OCCOc1c(Br)cc(Br)cc1Br`, 3.42.
Same read-out and setting: the value for `CC(=O)c1ccc(C(O)C(CO)NC(=O)C(Cl)Cl)cc1` (stereo unspecified) was 0.57; that for `c1cnccn1` was -0.26.
Same read-out and setting: the value for `C=CCO` was 0.17; that for `CCCCC1CC(C(=O)NC(C(C)O)C2OC(SC)C(O)C(O)C2O)N(C)C1` (stereo unspecified) was 0.56.
In turn, `CNC(=O)c1cccnc1` had a logP of 0.
Same read-out and setting: the value for `C1CCCC1` was 3; that for `C[C@H](N)[C@H](O)c1cccc(O)c1` was -0.27; that for `CC(=O)N[C@H](C(=O)N[C@@H](C)C(=O)N[C@@H](C)C(N)=O)C(C)C` was -1.4.
Still for that read-out and setting: as for `CCCCN`, the figure is 0.97; as for `CC(=NO)c1cccs1`, 1.81.
`c1ccc2oncc2c1` came in with a log partition coefficient (logP) of 1.63.
On the same count and under the same terms, the value for `O=NN(CCCl)C(=O)NC1CCCCCCCCCCC1` was 5.64; that for `CCOC(=O)C(=O)OCC` was 0.56.
The same measure, in the same setting: as for `O=C(Cc1ccccc1)NC(CO)C(O)c1ccc([N+](=O)[O-])cc1` (stereo unspecified), the figure is 1.52; as for `CCNC(N)=O`, -0.74; as for `COc1nnc(OC)c2ccccc12`, 2.22.
Turning to `CCCCSCS(=O)CC(C)NC(=O)C=Cc1c(C)[nH]c(=O)[nH]c1=O` (stereo unspecified), the logP was 0.82.
On to `CC(C)CC(=O)NC(N)=O`, for which the log partition coefficient (logP) worked out at 0.45.
`C[C@@H]1C[C@@]2(C)[C@@H](CC[C@@H]3[C@@H]2CC[C@]2(C)[C@@H](O)CC[C@@H]32)CC1=O`: the logP amounted to 3.99.
The compound `CCCCOCC1CO1` (stereo unspecified) came in with a logP of 0.63.
On to `NC(=O)CI`, for which the logP was -0.19.
Still for that read-out and setting: as for `C#CCC(O)(c1ccc(F)cc1)c1cccnc1` (stereo unspecified), the figure is 1.78; as for `c1ccc2c(c1)CCCN2`, 2.29; as for `Cc1ccc2[nH]c(=O)[nH]c(=O)c2c1`, 0.55.
For `CC(C)c1ccc(OCC(=O)O)cc1`, the logP is 2.69.
Same read-out and setting: as for `CC(=O)O[C@]1(C(C)=O)CC[C@H]2[C@@H]3C[C@H](C)C4=CC(=O)C=C[C@]4(C)[C@@]3(F)[C@@H](O)C[C@@]21C`, the figure is 1.5; as for `OCC(CO)(CBr)CBr`, 1.06; as for `CC(=O)C1CCC2C3CCC4=CC(=O)CCC4(C)C3C(O)CC12C` (stereo unspecified), 2.36.

Staying with this data set, now noted: pH 7.4.
Take `O=C(O)CCCc1ccc(N(CCCl)CCCl)cc1`: the pH-dependent lipophilicity (logD) (commonly lipophilicity at a set pH, counting ionised and neutral species) was determined as 1.7.
